[ ]: non-standard residue; d: D form. Aib = CC(C)(N)C(=O)O
Key:
[1] = tested on: human keratinocytes (HaCaT); assay: Gene expression of pro-inflammatory cytokines (RT-qPCR) in human keratinocytes (HaCaT); assay type: cell-based; conditions: HaCaT keratinocytes; RT-qPCR
Excerpt: (§1) Cells were activated with PMA/Ionomycin and treated with PBS, α-MSH, K(D)PT and Examples 3, 8 and 9, respectively, at a concentration of 10^−9 M. Values are normalized to β-actin and are shown relative to the gene expression in PBS-stimulated cells.
(§2) Primary T-cells were isolated from peripheral blood from healthy volunteers and from secondary lymphatic organs from naïve C57BL/6 mice, respectively. The cells were stimulated with phorbol-12-myristate-13-acetate (PMA)/Ionomycin and interferon-gamma (IFN-γ), respectively, for 48 h to activate the cells. The activated cells release pro-inflammatory cytokines. In parallel a human (HaCaT) keratinocyte cell line was activated with PMA/Ionomycin and IFN-γ, respectively, too. […] At the same time release of anti-inflammatory IL-10 was inhibited. Two days after addition of PMA/Ionomycin and IFN-γ, respectively, the induction of IL-1 secretion was determined in the supernatant for proving that the cells are activated. […] The anti-inflammatory properties of the tripeptides were determined 48 h and 72 h following stimulation. A 13-plex-system based FACS analysis was used for showing the reduced secretion of pro-inflammatory cytokines in the supernatant. Data for IL-1, IL-2, IL-6, IL-12p70 IL-17, IFN-γ and TNF-α are considered to be most relevant. Thus, analysis of the anti-inflammatory properties of the tripeptides is preferably based on the results obtained for these analytes. […] Using this method the gene expression of pro-inflammatory markers like IL-6, IL-17, IFN-γ and TNF-α was determined.
(§3) In a third experiment murine and human T cells and HaCaT cells were stimulated with PMA/Ionomycin and treated with Examples 14, 15, 16 and 17 at 10^−7 M, 10^−9 M and 10^−11 M. Cytokine concentrations (IFN-γ, IL-17 and IL-10 for T cells and IFN-γ for HaCat) were assessed in the supernatants using the Luminex technology. Expression of genes coding for Il-1β, IL-6 and TNF-α was determined. […] Moreover, concentrations of pro-inflammatory cytokines IFN-γ and IL-17 was reduced in the supernatants whereas the concentration of anti-inflammatory cytokine IL-10 was increased.

C57BL/6 mice = assay: Vasculitis model in mice (LPS / TNF-α intradermal); assay type: in vivo; conditions: s.c.
Procedure: C57BL/6 mice receive an intradermal injection of LPS. On the following day vasculitis is induced by intradermal injection of TNF-α. In addition Evan's blue is injected. 24 hours following the injection of TNF-α mice are scarified. Ear thickness is measured and the degree of vasculitis is assessed by counting petechiae. The content of Evan's blue in the ear tissue is a marker for vascular permeability. Ears are analyzed by histology, FACS and RT-qPCR. […] In histology a reduced inflammatory infiltrate was seen.

primary human T cells = assay: Gene expression of pro-inflammatory cytokines (RT-qPCR) in primary human T cells; assay type: cell-based; conditions: RT-qPCR
Excerpt: as §1, §2, §3

[2] = tested on: human keratinocyte cell line (HaCaT); assay: Cytokine secretion on protein level in activated human keratinocyte cell line HaCaT (13-plex FACS / Luminex, supernatant); assay type: cell-based; conditions: for IL-1 cytokine concentration / IL-2 cytokine concentration / IL-4 cytokine concentration / IL-5 cytokine concentration / IL-6 cytokine concentration / IL-9 cytokine concentration / IL-10 cytokine concentration / IL-12p70 cytokine concentration / IL-13 cytokine concentration / IL-17 cytokine concentration / IL-22 cytokine concentration / TNF-α cytokine concentration / IFN-γ cytokine concentration: substance 10^−9M
Method in brief: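 Cytokine protein in supernatant is read by multiplex FACS or Luminex. Tripeptide-treated HaCaT cells or blood-derived human T-cells are stimulated beforehand with PMA/Ionomycin or IFN-γ. The most relevant analytes are IL-1, IL-2, IL-6, IL-12p70, IL-17, IFN-γ and TNF-α, sampled 48 h and 72 h after stimulation.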

primary murine T cells = assay: Gene expression of pro-inflammatory cytokines (RT-qPCR) in primary murine T cells; assay type: cell-based, C57BL/6 mice; conditions: RT-qPCR
Excerpt: as §1, §2, §3

[3] = HaCaT stimulated with PMA/Ionomycin

## H-Phe-Pro-[Aib]-OH [Example 13]
[1]
  gene expression of pro-inflammatory cytokines: reduced expression
C57BL/6 mice
  ear thickness: reduction
  inflammatory infiltrate in histology: reduced
  number of petechiae: reduced number
Primary human T cells
  mRNA expression of IL-6, IL-17, IFN-γ and TNF-α: reduced expression
[2]; HaCaT stimulated with IFN-γ
  IL-1 cytokine concentration: 0 pg/mL
  IL-2 cytokine concentration: 0 pg/mL
  IL-4 cytokine concentration: 76.13 pg/mL
  IL-5 cytokine concentration: 0 pg/mL
  IL-6 cytokine concentration: 255.5 pg/mL
  IL-9 cytokine concentration: 0 pg/mL
  IL-10 cytokine concentration: 7.59 pg/mL
  IL-12p70 cytokine concentration: 0 pg/mL
  IL-13 cytokine concentration: 0 pg/mL
  IL-17 cytokine concentration: 34.2 pg/mL
  IL-22 cytokine concentration: 0 pg/mL
  TNF-α cytokine concentration: 0 pg/mL
[2]; HaCaT stimulated with PBS
  IFN-γ cytokine concentration: 0 pg/mL
  IL-1 cytokine concentration: 17.16 pg/mL
  IL-2 cytokine concentration: 14.24 pg/mL
  IL-4 cytokine concentration: 132.37 pg/mL
  IL-5 cytokine concentration: 0 pg/mL
  IL-6 cytokine concentration: 74.11 pg/mL
  IL-9 cytokine concentration: 0 pg/mL
  IL-10 cytokine concentration: 74.67 pg/mL
  IL-12p70 cytokine concentration: 0 pg/mL
  IL-13 cytokine concentration: 1948.04 pg/mL
  IL-17 cytokine concentration: 0 pg/mL
  IL-22 cytokine concentration: 0 pg/mL
  TNF-α cytokine concentration: 6.94 pg/mL
[2]; [3]
  IFN-γ cytokine concentration: 0 pg/mL
  IL-1 cytokine concentration: 0 pg/mL
  IL-2 cytokine concentration: 0 pg/mL
  IL-4 cytokine concentration: 91.99 pg/mL
  IL-5 cytokine concentration: 0 pg/mL
  IL-6 cytokine concentration: 216.69 pg/mL
  IL-9 cytokine concentration: 0 pg/mL
  IL-10 cytokine concentration: 41.86 pg/mL
  IL-12p70 cytokine concentration: 0 pg/mL
  IL-13 cytokine concentration: 0 pg/mL
  IL-17 cytokine concentration: 21.33 pg/mL
  IL-22 cytokine concentration: 0 pg/mL
  TNF-α cytokine concentration: 0 pg/mL
[2]; activated human keratinocytes
  secretion / expression of pro-inflammatory cytokines (supernatant): decreased expression
Primary murine T cells
  mRNA expression of IL-6, IL-17, IFN-γ and TNF-α: reduced expression

From US10954269B2, “Anti-inflammatory tripeptides” (Dr. August Wolff Gmbh & Co. KG Arzneimittel, priority 2013, dated 2021)
